# According to US20260317328A1, “SMALL MOLECULES FOR ADOPTIVE T-CELL THERAPY (ACT) THROUGH ACTIVATION OF THE mTOR SIGNALLING PATHWAY, PROCESS FOR PREPARATION THEREOF” (COUNCIL OF SCIENTIFIC & INDUSTRIAL RESEARCH, priority 2023, published 2026):
# Assays:
# CD8^+ T cells [1] = experiment: Effector cytokine (IFN-γ, TNF-α) production by activated CD8+ T cells; type: cell-based; details: naïve T cells activated in presence of compound (FIG. 2B-E)
# Text: Distinct T cell states require specific metabolic programs compatible to their functional demands. The transition between various T cell states is accompanied by active rewiring of cellular metabolism and epigenetic landscape. Oxidative phosphorylation is the main biochemical pathway that drives metabolism of naïve T cell. Upon activation, naïve T cells rapidly reprogram their metabolic networks to comply with the demands of robust clonal expansion and epigenetic remodeling. So, TCR activation and co-stimulation initiate a set of signaling cascades that collectively license a T cell to exit quiescence. […] So, we assessed glucose uptake level by activated CD8^+ T cells using fluorescent labeled deoxy-glucose analogue, 2NBDG. […]
# (§1) Measurement of cytokine production: To assess IFN-γ and TNF-α secretion by intracellular cytokine staining, cells (0.2×10^6) were treated for 4 hours with restimulation cocktail containing phorbolmyristate acetate (50 ng ml^−1) and ionomycin (500 ng ml^−1), brefeldin A (to block anterograde protein transport). […] Next cells were washed with PBS, fixed for 20 min at 4° C. with fixation/permeabilization solution, washed with permeabilization buffer, finally stained for 30 min with anti-IFN-γ and anti-TNF-α mAb in dark at 4° C., washed with PBS and analyzed.
# [2] = Metabolic stability using human liver microsomes (HLM); type: in vitro ADME; details: pH 7.4, read-out: % QH (Well stirred model)
# Protocol: 1 mM stock solution of test compound was prepared in DMSO and diluted with Acetonitrile:Water (1:1) to get a 100 μM working concentration. 100 mL of Milli Q water was added to K2HPO4 (1.398 g) and KH2PO4 (0.27 g) to get final pH 7.4 solution of potassium phosphate buffer. […] The above mixture was pre incubated for 15 minutes at 37° C. After pre incubation, 32.5 μL of the mixture was added to 17.5 μL of buffer, this was incubated for 60 minutes at 37° C. [60 min Without Cofactor (NADPH)]. 16.25 μL of the pre incubated mixture and 8.75 μL of cofactor was added to 150 μL of acetonitrile containing internal standard [0 min Sample]. 62 μL of cofactor was added to remaining pre incubation mixture [Incubation mixture]. 25 μL of incubation mixture at 0, 5, 15, 30, 60 min and 60 min without cofactor were precipitated with 150 μL of acetonitrile containing internal standard, vortexed and centrifuged at 4000 rpm at 4° C. for 20 minutes. 120 μL of supernatant was diluted with 120 μL of water and analyzed by LC-MS/MS [sample preparation].
# EL4-OVA tumors = experiment: Adoptive transfer of OT1 T cells into mice bearing EL4-OVA tumors; type: in vivo, mouse
# Protocol: Given the functional fitness of Comp-19 treated CD8^+ T cells in vitro, we, next, sought to determine their antitumor potential upon adoptive transfer into mice bearingEL4-OVA tumors.
# EL-4.OVA tumor cells (1×10^6) or B16-F10 melanoma (0.5×10^6 cells) were injected subcutaneously into the left flank of 7-10 weeks old C57BL/6 mice. After 9 days of tumor establishment, ex vivo activated OT-1 T cells at 0.5×10^6 cells/mouse were adoptively transferred intravenously into tumor-bearing recipients.
# CD8^+ T cells [3] = experiment: Glucose uptake assay (2NBDG) in activated CD8+ T cells; type: cell-based; details: naïve T cells activated in presence of compound; 2NBDG (FIG. 2A)
# Text: Distinct T cell states require specific metabolic programs compatible to their functional demands. The transition between various T cell states is accompanied by active rewiring of cellular metabolism and epigenetic landscape. Oxidative phosphorylation is the main biochemical pathway that drives metabolism of naïve T cell. Upon activation, naïve T cells rapidly reprogram their metabolic networks to comply with the demands of robust clonal expansion and epigenetic remodeling. So, TCR activation and co-stimulation initiate a set of signaling cascades that collectively license a T cell to exit quiescence. Stimulation of the TCR promotes signaling through the ERK/MAPK pathways and calcium flux, activation of the PI3K-AKT-mTOR axis which subsequently resulting in T cell activation. This conversion to an activated effector T cell is marked by enhanced glucose uptake, engagement of aerobic glycolysis, increased oxidative phosphorylation. So, we assessed glucose uptake level by activated CD8^+ T cells using fluorescent labeled deoxy-glucose analogue, 2NBDG. […]
# Glucose uptake assay: Glucose uptake by activated T cells was evaluated using fluorescent labeled deoxy-glucose analogue, 2NBDG. […]
# [4] = tested on: Human naïve CD8^+ T cells; experiment: EC50 for IFNγ production in human naïve CD8+ T cells; type: cell-based; details: 72 hrs, doses 500 pM to 50 μM, N=3 for each dose
# Protocol: Human naïve CD8^+ T cells were sorted from PBMC and activated in presence of Comp 19 in the different doses (500 pM, 1 nM, 100 nM, 500 nM, 1 μM, 5 μM, 10 μM, 50 μM). After 72 hrs, activated CD8+ T cells were restimulated and stained for IFNγ production. Percent of CD8+ T cell producing IFNγ in the previously mentioned doses of Comp 19 was normalized to a vehicle control (DMSO) treated group. The optimum dosage of Comp 19 for inducing effector cytokine (IFNγ) production from CD8^+ T cells is 10 μM. […] (N=3 for each dose of Comp 19).
# Human peripheral blood mononuclear cells (PBMC) were obtained from fully anonymized whole blood bags (age & sex related information were not provided) collected from healthy volunteer blood donors at NRS Medical College & Hospital, Kolkata, India. […]
# as §1
# mTORC1 = mTORC1 activity in CD8+ T cells: pS6 and p4EBP1 levels (flow cytometry, western blot); type: cell-based
# Text: Several transcription factors and signaling pathways coordinately support and regulate the metabolic shifting of naïve T cell after activation. Downstream of co-stimulation and PI3K-AKT signaling, mammalian target of Rapamycin (mTOR) kinase pathway helps in integrating multiple signals, plays a significant role for cell cycle entry and coordinates early anabolic changes that occur upon T cell activation mTOR complex 1 (mTORC1) promote aerobic glycolysis and support effector T cell proliferation, growth, and cytokine production. Translation repressor protein 4E-BP1 inhibits cap-dependent translation by binding to the translation initiation factor eIF4E. Phosphorylation of 4E-BP1 by mTORC1 disrupts this interaction and results in activation of cap-dependent translation. On the contrary, phosphorylation of S6 ribosomal protein correlates with an increase in translation of mRNA transcripts that contain an oligopyrimidine tract in their 5′ untranslated regions. Activation of mTORC1 increases protein translation via direct phosphorylation of 4E-BP1 and p70S6 kinase. Since Comp-19 was proposed as mTORC1 activator, next we sought to check expression level ofpS6 and p4EBP1 level inside CD8^+ T cells activated in presence/absence of Comp-19. […] CD8^+ T cells treated with Comp-19 (FIG. 3A-C).
# (§2) Purified naïve CD3^+ T cells were activated either in presence of Comp 19 ([…]) or vehicle (DMSO) with plate-bound anti-CD3 ([…]) and anti-CD28 ([…]) for 72 h in RPMI-1640 medium containing 10% FBS, 50 µM R-ME, 50 U/mL penicillin and […] streptomycin and 100 IUmL^−1 rIL-2.
# pS6 Staining: Intracellular phospho ribosomal protein S6 (pS6) were stained using Transcription factor Phospho Buffer set. Single cell suspension was prepared and cells were washed with 1×PBS. […] Finally, cells were washed, dissolved in PBS and analysed by flow cytometry.
# Cell lysates from 4×10^6 cells per condition were prepared in RIPA buffer containing protease inhibitor cocktail. Protein concentrations were determined with a serial dilution standard curve of Bradford assay. […]
# CD8^+ T cells [5] = experiment: Initial small molecule screening: intracellular cytokine staining of CD8+ T cells activated with each small molecule; type: cell-based, mouse
# Text: To select the small molecule capable of inducing IFN-γ production in CD8^+ T cells, […] CD3^+ sorted naïve T cells were activated with each small molecule for 72 hrs followed by an intracellular cytokine staining.
# CD3^+ T cells were isolated from human peripheral blood by density-gradient (Ficoll gradient) centrifugation followed by a negative selection using Dynabeads Untouched Human T Cells Kit, resulting in a typically >90% pure CD3^+ T cell population.
# as §2
# Measurement of cytokine production: To assess IFN-γ and TNF-α secretion by intracellular cytokine staining, cells (0.2×10^6) were treated for 4 hours with restimulation cocktail containing phorbolmyristate acetate (50 ng ml^−1) and ionomycin (500 ng ml^−1), brefeldin A (to block anterograde protein transport). Then cells were stained for surface markers and simultaneously labeled with Live/Dead Yellow Fluorescent Dye for 20 min at 4° C. Next cells were washed with PBS, fixed for 20 min at 4° C. with fixation/permeabilization solution, washed with permeabilization buffer, finally stained for 30 min with anti-IFN-γ and anti-TNF-α mAb in dark at 4° C., washed with PBS and analyzed.
# Plasma stability assay = type: in vitro ADME; details: human, 37° C., 120 mins
# Protocol: 1 mM Stock of test compound was prepared from 10 mM initial stock solution of compounds by diluting 10 μL of 10 mM stock with 90 μL of DMSO. Then 10 μL of 1 mM stock was diluted with 90 μL of DMSO to give 100 μM concentration. The frozen plasma was thawed at room temperature and centrifuged at 1400 rpm at 4° C., for 15 minutes. Approximately 90% of the clear supernatant fraction was transferred to a separate tube and was used for the assay. Final working stock of 1 μM was prepared by diluting 3 μL of 100 μM with 297 μL of plasma. Plasma containing the test compound was incubated for 120 mins at 37° C. in shaker with 500 rpm. 50 μL of aliquot of sample at 0, 15, 30, 60 and 120 minutes were precipitated with 150 μL of acetonitrile containing internal standard and centrifuged at 4000 rpm at 4° C. for 20 minutes. 120 μL of supernatant was diluted with 120 μL of water and analyzed by LC-MS/MS.
# [6] = Lipophilicity assay (n-octanol / phosphate buffer); type: physicochemical; details: pH 7.4, 1-octanol/10 mM sodium phosphate buffer, room temperature; criteria: <0 low, 0-1 moderate, >2 high lipophilicity
# Protocol: 1.56 g NaH2PO4O·2H2O was dissolved in 0.5 L water in a 1 L beaker. After adjusting pH to 7.4 using NaOH solution, the volume was made up to 1 L. Equal volumes of sodium phosphate buffer (10 mM, pH 7.4) and n-octanol were added to a separation funnel and mixed thoroughly by shaking and inverting the funnel several times. The two layers were allowed to separate for overnight and then dispensed in two separate glass bottles. 10 mM stock solution was prepared in 100% DMSO and stored at 4° C. 495 μL of organic phase (1-octanol) was added to each well of a 2 mL deep well plate, followed by 495 μL of buffer and 10 μL of test substance was added. The plate was incubated for 3 hr at room temperature on a plate shaker at 500 rpm. After incubation, the samples were allowed to equilibrate for 20 min and then centrifuged at 4000 rpm for 30 min for complete phase separation and analysed by LC-UV.
# Log D=Log (area of octanol/area of buffer)
# [7] = OT1 T cells (0.5×10^6 cells/mouse) activated in presence of 10 μM ml^−1 compound
# [8] = inhibitory receptor (FIG. 4F,4G)
# [9] = 10 μM, 72 hrs, compared to vehicle control/other small molecules treated group (FIG. 1A-B)
structure (smiles),measurement,setting,value
"COc1ccc(-c2nc3c(NS(=O)(=O)c4ccc(C)cc4)ncnc3n2C)cc1 [Compound 19, N-(8-(4-methoxyphenyl)-9-methyl-9H-purin-6-yl)-4-methylbenzenesulfonamide]",IFN-γ production level from CD8^+ T cell,CD8^+ T cells [1],significant increase
same,TNF-α production level from CD8^+ T cell,CD8^+ T cells [1],significant increase
same,hepatic extraction ratio,[2],0.0077
same,persistence of CD8+Vβ5.1+ OT1 T cells,EL4-OVA tumors; FIG. 4B,improved persistence
same,survival of tumor-bearing mice,EL4-OVA tumors; [7],markedly enhanced the survival
same,tumor growth control,EL4-OVA tumors; [7],could efficiently control tumor growth
same,CD38 expression on CD8+Vβ5.1+ OT1 T cells,EL4-OVA tumors; [8],reduced expression
same,PD1 expression on CD8+Vβ5.1+ OT1 T cells,EL4-OVA tumors; [8],reduced expression
same,TIM3 expression on CD8+Vβ5.1+ OT1 T cells,EL4-OVA tumors; [8],reduced expression
same,number of circulating CD8^+Vβ5.1^+ T cells,"EL4-OVA tumors; tumor-bearing host, vs mice that received DMSO treated cells",higher number
same,glucose uptake,CD8^+ T cells [3],promoted glucose uptake
same,optimum dosage for inducing effector cytokine (IFNγ) production from CD8^+ T cells,[4],10 µM
same,EC50,"[4]; Homo sapiens, T-cell, normalized to vehicle (DMSO)",4.09 µM
same,mTORC1 activation,mTORC1; conclusion from pS6 and 4EBP1 results in CD8^+ T cells,potent mTOR-Cl activator
same,4EBP1 (p4EBP1) expression,mTORC1; downstream substrate of mTORC1 (FIG. 3D),significant high expression
same,pS6 level inside CD8^+ T cells,mTORC1; flow cytometry and western blot (FIG. 3A-C),marked increase
same,IFN-γ production from CD8^+ T cells,CD8^+ T cells [5]; [9],highest
same,TNF-α production from CD8^+ T cells,CD8^+ T cells [5]; [9],highest
same,improving effector cytokine production from CD8^+ T cells (ranking among the small molecules),CD8^+ T cells [5]; 72 hrs activation,most promising
same,"remaining at 2 h, 1 µM",Plasma stability assay,85.8%
same,logD,[6],0.96
"CCc1ccc(S(=O)(=O)Nc2ncnc3c2nc(-c2ccc(OC)cc2)n3C)cc1 [Compound 22, 4-ethyl-N-(8-(4-methoxyphenyl)-9-methyl-9H-purin-6-yl)benzenesulfonamide]",hepatic extraction ratio,[2],0.318
same,"remaining at 2 h, 1 µM",Plasma stability assay,3.9%
same,logD,[6],4.32
"COCCc1ccc(OCC(O)CNC(C)C)cc1 (centres unmarked) [Metroprolol, reference compound]",logD,[6],-0.34
"CC(C)[N+](C)(CCOC(=O)C1c2ccccc2Oc2ccccc21)C(C)C [Propantheline, reference compound]","remaining at 2 h, 1 µM",Plasma stability assay,0.33%
